Several values for one entry are separate records, joined by “and”; a condition that tells them apart may be missing. Equal entries are not always repeated.
Key:
[1] = tested on: Orobanche cumana Wallr. seeds; test: Germination of preconditioned Orobanche cumana seeds on glass fiber filter paper in petri dishes; type: in vivo; conditions: mean, N = 5 × 100 seeds, seed lot IN153
Experimental: The effect of compounds of Formula (I) on germination of Orobanche cumana Wallr. seeds was evaluated on glass fiber filter paper (GFFP) in petri dishes. Seeds were preconditioned at moisture and suitable temperature to become responsive to the specific chemical germination stimulants.
Test compounds were dissolved in DMSO (10 000 mg l^−1) and stored at room temperature in a desiccators with desiccants. The stock solutions were dissolved with deionised water to the appropriate final test concentration.
Seeds of O. cumana race ‘F’ (IN153) were collected from a sunflower field in Manzanilla (Seville, Spain) in 2006 and stored at room temperature. To separate seeds from heavy organic debris, a modified sucrose floatation technique as described by Hartman & Tanimonure (Plant Disease (1991), 75, p. 494) was applied. Seeds were filled into a separation funnel and stirred in water. When seeds floated to the surface, the water fraction containing heavy debris was discarded. Seeds were re-suspended in 2.5M sucrose solution (specific gravity of 1.20) and heavy debris was allowed to settle down for 60 min After removing debris, seeds were disinfected in 1% sodium hypochlorite solution and 0.025% (v/v) Tween 20 for 2 min. The seeds were decanted onto two layers of cheesecloth, rinsed with sterile deionised water and re-suspended in sterile deionised water. Two ml of the seed suspension containing approximately 150-400 seeds were spread evenly on two layers of sterile glass fiber filter paper disc ([…]) in Petri dishes (Ø9 cm). After wetting the discs with 3 ml sterile deionised water, petri dishes were sealed with parafilm. Seeds were incubated for 10 days at 20° C. in the dark for seed conditioning. The upper disc with conditioned seeds was briefly dried, transferred to a petri dish lined with a dry GFFP disc, and wetted with 6 ml of the appropriate test solution. The compounds of Formula (I) were tested at concentrations of 0.001, 0.01, 0.1, or 1 mg l^−. The strigolactone analogue GR24 was included as positive control and 0.01% DMSO as negative control. All treatments were tested in five replicates. Seeds were re-incubated at 20° C. in the dark and examined for germination 10 days later. The radicles of germinated seeds were stained for 5 min with blue ink (MIGROS, Switzerland) in 5% acetic acid according to Long et al. (Seed Science Research (2008), 18, p. 125). After staining, seeds were photographed using a camera stand mounted with a digital SLR camera (Canon EOS 5D). Germination of 100 seeds per replicate was evaluated on digital images. Seeds were considered germinated when the radicle protruded from the seed coat.

[2] = tested on: Brassica oleracea cv Botrytis (temperate cauliflower) seeds; test: Paper germination test, temperate cauliflower seeds, 10° C. in the light; type: in vivo; conditions: 25 μM, sets A and B separate experiments
Experimental: The effect of compounds of Formula (I) on the germination of Brassica oleracea cv Botrytis or common cauliflower was tested on two types of cauliflowers: temperate types and tropical types. These two types were chosen because they display different sensitivities to the light conditions and temperature during germination. Germination of a sensitive temperate type is inhibited by light at 10° C. while for the tropical types germination at 20° is stimulated by the presence of light.
The temperate seed batches tested are part of commercially produced seed batches of various varieties which are known to be sensitive to light at 10° C. These seeds were harvested and cleaned according standard commercial procedures. Ready seed batches were used (Ready indicates the processing level of these seeds: they have been cleaned and sized but received no other treatments). The tropical seed batches tested are part of seed batches produced as basic seed (for maintenance of the parental line) and were processed accordingly.
Germination was assessed using the standard paper germination test for Brassica: Fifty seeds were placed on blue germination paper, which was moistened with the appropriate solutions, in closed oblong germination boxes. Each condition was tested in duplo. Germination boxes were placed in controlled germination cabinets with the appropriate temperature and light conditions. Germination of seeds was counted at regular intervals. Seeds were considered to be germinated when the radical had protruded the testa and endosperm (radical size approximately 1 mm)
Test compounds were dissolved in DMSO at a concentration of 50 mM and stored at −20° C. The strigolactone analogue GR24 (commercially available as a racemic mixture of 2 diastereoisomers, referred to as “synthetic strigolactone GR-24” and first prepared by Johnson A. W. & all, Journal of the Chemical Society, Perkin Transactions 1, 1981, page 1734-1743) was included as positive control. Germination solutions were prepared by diluting the stock solutions with demineralized water till 25 μM. As control solutions demineralized water and a 0.05% v/v DMSO solution were used.

[3] = Table B1, concentration 0.001 mg 1^−1, DMSO control 0.4% germination
[4] = Table B1, concentration 0.1 mg 1^−1, DMSO control 0.4% germination
[5] = Table B1, concentration 1 mg 1^−1, DMSO control 0.4% germination
[6] = temperate cauliflower Spacestar seed batch 11B313 (cold-sensitive)
[7] = temperate cauliflower Spacestar seed batch 11B314 (not cold sensitive)

Q: What does the source list for `CC1=C[C@H](O/C=C2/C(=O)O[C@@H]3c4ccccc4C[C@H]23)OC1=O` (mixture of isomers) [GR-24, reference compound]?
A: Germination (%) ([1]; Concentration 0.01 mg l^-1, 10 days at 20° C. in the dark): 88%; Germination (%) ([1]; Concentration 0.01 mg l^-1 as printed, 10 days at 20° C. in the dark): 86.6%; Germination (%) ([1]; Concentration 1 mg l^-1, 10 days at 20° C. in the dark): 95.2%; Germination (%) [1, 3]: 24.8%; Germination (%) [1, 4]: 47.2%; Germination (%) [1, 5]: 80.2%; Germination (%) ([1]; Table B2, concentration 0.01 mg 1^−1, DMSO control 2.4% germination): 12.2%; Germination (%) ([1]; Table B2, concentration 0.1 mg 1^−1, DMSO control 2.4% germination): 46.4%; Germination (%) ([1]; Table B2, concentration 1 mg 1^−1, DMSO control 2.4% germination): 85.2%; Germination (%) ([1]; Table B3, concentration 0.001 mg 1^−1, DMSO control 0% germination): 26%; Germination (%) ([1]; Table B3, concentration 0.01 mg 1^−1, DMSO control 0% germination): 51%; Germination (%) ([1]; Table B3, concentration 0.1 mg 1^−1, DMSO control 0% germination): 84.2%; Germination (%) ([1]; Table B5, concentration 0.01 mg 1^−1 (second column), DMSO control 1.4% germination): 78.4%; Germination (%) ([1]; Table B5, concentration 0.01 mg 1^−1 (third column), DMSO control 1.4% germination): 65%; Germination (%) ([1]; Table B5, concentration 1 mg 1^−1, DMSO control 1.4% germination): 86.6%; Germination (%) ([1]; Table B6, concentration 0.001 mg 1^−1, DMSO control 2.4% germination): 23.0%; Germination (%) ([1]; Table B6, concentration 0.1 mg 1^−1, DMSO control 2.4% germination): 43.2%; Germination (%) ([1]; Table B6, concentration 1 mg 1^−1, DMSO control 2.4% germination): 58.1%; Gmax (%), total germination as percentage of sown seeds [2, 6]: 71.5% and 80.0%; Gmax (%), total germination as percentage of sown seeds [2, 7]: 93.5% and 93.0%; stimulation (%), extra germination compared to the DMSO treatment, as percentage of the germination in the DMSO treatment [2, 7]: 3.3% and 8.1%

Q: Which melting point does the source give for `CC1=CC(O/C=C2\CCCCN(c3ccccc3)C2=O)OC1=O` (centres unmarked) [Ic-13, (3E)-3-[(4-methyl-5-oxo-2H-furan-2-yl)oxymethylene]-1-phenyl-azepan-2-one] here?
A: The melting point was 150 to 160 °C.

Q: What does the source list for `CC1=CC(O/C=C2/C(=O)NC3C=CCC23)OC1=O` (centres unmarked) [Ia-1, (3E)-3-[(4-methyl-5-oxo-2H-furan-2-yl)oxymethylene]-1,3a,4,6a-tetrahydrocyclopenta[b]pyrrol-2-one]?
A: Germination (%) [1, 3]: 1.4%; Germination (%) [1, 4]: 24.6%; Germination (%) [1, 5]: 23.2%; Gmax (%), total germination as percentage of sown seeds [2, 6]: 72.0%; stimulation (%), extra germination compared to the DMSO treatment, as percentage of the germination in the DMSO treatment [2, 6]: 20.0%; Gmax (%), total germination as percentage of sown seeds [2, 7]: 96.5%; stimulation (%), extra germination compared to the DMSO treatment, as percentage of the germination in the DMSO treatment [2, 7]: 6.6%

From US9119398B2, “Plant growth regulating compounds” (Syngenta Participations AG, priority 2012, dated 2015)
